According to patent publication US20170081368A1, “PEPTIDES AS OXYTOCIN AGONISTS” (Hoffmann-La Roche Inc., priority 2014, published 2017):
Where a SMILES comes first, the peptide text is derived from it.

Target: T1, human Oxytocin (OTR) receptor (Homo sapiens, UniProt P30559)
T1 construct: expressed in transfected cells
T1 sequence (P30559 1-389): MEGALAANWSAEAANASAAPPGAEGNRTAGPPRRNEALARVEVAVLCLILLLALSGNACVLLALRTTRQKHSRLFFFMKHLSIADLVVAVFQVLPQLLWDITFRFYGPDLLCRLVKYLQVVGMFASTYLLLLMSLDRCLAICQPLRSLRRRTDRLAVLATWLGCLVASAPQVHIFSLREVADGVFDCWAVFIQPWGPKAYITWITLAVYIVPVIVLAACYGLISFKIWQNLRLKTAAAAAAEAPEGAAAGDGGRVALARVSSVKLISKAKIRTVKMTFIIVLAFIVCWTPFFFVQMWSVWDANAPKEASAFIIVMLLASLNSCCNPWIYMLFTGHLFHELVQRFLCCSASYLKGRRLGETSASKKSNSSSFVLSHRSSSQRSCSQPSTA
Assay: Calcium flux assay (FLIPR) in CHO cells expressing human OTR
Assay type: cell-based
Settings: for Emax: CHO, maximum response normalized to endogenous full agonist = 100%, read-out: hOT efficacy; for EC50: agonist mode, CHO cells, calcium flux FLIPR, read-out: hOT EC50
Text: Chines Hamster Ovary (CHO) cells were transfected with expression plasmids encoding either the human Vla, the human Oxytocin (OTR) or the humanV2 receptor, the later in combination with the chimeric Gqs5 G protein to redirect the signal to Calcium flux. Stable cells were cloned by limiting dilution to yield monoclonal cell lines expressing either human Vla, human V2+Gqs5 or human OTR receptors and selected based on functional responses detected on a fluorometric imaging plate reader (FLIPR) detecting Calcium flux in the cell after receptor activation. The stable cell lines were grown in F-12 K Nutrient Mixture (Kaighns Modification), containing 10% foetal bovine serum (FBS), 1% penicillin-streptomycin, 1% L-glutamate, 200 ug/ml Geneticin at 37° C. in a 10% CO2 incubator at 95% humidity.
Calcium Flux Assays Using Fluorescent Imaging (Fluorometric Imaging Plate Reader, FLIPR)
On the afternoon before the assay, cells were plated at a density of 50,000 cells/well into black 96 well plates with clear bottoms to allow cell inspection and fluorescence measurements from the bottom of each well. The density of cells was sufficient to yield a confluent monolayer the next day. Hanks balanced salt solution, without phenol red, containing 20 mM HEPES (pH 7.3) and 2.5 mM probenecid (assay buffer) was prepared fresh for each experiment. Compound dilutions were made using a Beckman Biomek 2000 laboratory automation workstation, in assay buffer containing 1% DMSO. The dye-loading buffer consisted of a final concentration of 2 μM Fluo-4-AM (dissolved in DMSO and pluronic acid) in assay buffer. The existing culture media was removed from the wells and 100 μl of the dye-loading buffer was added to each well and incubated for approximately 60 min at 37° C. in a 5% CO2 incubator at 95% humidity. Once dye-loaded, the cells were washed thoroughly on an Embla cell washer with the assay buffer to remove any unincorporated dye. Exactly 100 μl assay buffer was left in each well.
Each 96 well plate containing dye-loaded cells was placed into the FLIPR machine and the laser intensity set to a suitable level to detect low basal fluorescence. To test compounds as agonists, 25 μl diluted compound was added to the plate 10 seconds into the fluorescent measurements and fluorescent response was recorded for 5 minutes. The fluorescence data was normalized to the endogenous full agonist dose-response set at 100% for the maximum response and 0% for the minimum. Each agonist concentration-response curve was constructed using a four parameter logistic equation with Microsoft Excel XLFit as follows: Y=Minimum+((Maximum−Minimum)/(1+10^(LogEC50−X)nH)), where y is the % normalized fluorescence, minimum is the minimum y, maximum is the maximum y, log EC50 is the log10 concentration which produces 50% of the maximum induced fluorescence, x is the log10 of the concentration of the agonist compound and H is the slope of the curve (the Hill Coefficient). The maximum value gives the efficacy of the agonist test compound in percentage. The concentration of agonist that produced a half-maximal response is represented by the EC50 value, the logarithm of which yielded the pEC50 value.

Compound	Emax	EC50
CC[C@H](C)[C@@H]1NC(=O)[C@H](Cc2ccc(O)cc2)NC(=O)CCS(=O)(=O)CC[C@@H](C(=O)N2CCCC[C@H]2C(=O)N[C@@H](CC(C)C)C(=O)NCC(N)=O)NC(=O)[C@H](CC(N)=O)NC(=O)[C@H](CCC(N)=O)NC1=O [Example 5] (HELM PEPTIDE1{Y.I.Q.N.[O=C([C@H](CCS(=O)(=O)CCC(=O)[*:3])N[*:1])[*:2]].[O=C([C@@H]1CCCCN1[*:1])[*:2]].L.G.[am]}$PEPTIDE1,PEPTIDE1,1:R1-5:R3$$$V2.0)	130%	3.8 nM
CC[C@H](C)[C@@H]1NC(=O)[C@H](Cc2ccc(O)cc2)NC(=O)CCS(=O)(=O)CC[C@@H](C(=O)N2C[C@@H](F)C[C@H]2C(=O)N[C@@H](CC(C)C)C(=O)NCC(N)=O)NC(=O)[C@H](CC(N)=O)NC(=O)[C@H](CCC(N)=O)NC1=O [Example 7] (HELM PEPTIDE1{Y.I.Q.N.[O=C([C@H](CCS(=O)(=O)CCC(=O)[*:3])N[*:1])[*:2]].[O=C([C@@H]1C[C@H](F)CN1[*:1])[*:2]].L.G.[am]}$PEPTIDE1,PEPTIDE1,1:R1-5:R3$$$V2.0)	141%	2.6 nM
CC[C@H](C)[C@@H]1NC(=O)[C@H](Cc2ccc(O)cc2)NC(=O)CCS(=O)(=O)CC[C@@H](C(=O)N2C[C@H](O)C[C@H]2C(=O)N[C@@H](CC(C)C)C(=O)NCC(N)=O)NC(=O)[C@H](CC(N)=O)NC(=O)[C@H](CCC(N)=O)NC1=O [Example 8] (HELM PEPTIDE1{Y.I.Q.N.[O=C([C@H](CCS(=O)(=O)CCC(=O)[*:3])N[*:1])[*:2]].[Hyp].L.G.[am]}$PEPTIDE1,PEPTIDE1,1:R1-5:R3$$$V2.0)	129%	0.8 nM
CCCC[C@H](NC(=O)CN(C)C(=O)[C@@H]1CCS(=O)(=O)CCC(=O)N[C@@H](Cc2ccc(O)cc2)C(=O)N[C@@H]([C@@H](C)CC)C(=O)N[C@@H](CCC(N)=O)C(=O)N[C@@H](CC(N)=O)C(=O)N1)C(=O)NCC(N)=O [Example 9] (HELM PEPTIDE1{Y.I.Q.N.[O=C([C@H](CCS(=O)(=O)CCC(=O)[*:3])N[*:1])[*:2]].[Sar].[Nle].G.[am]}$PEPTIDE1,PEPTIDE1,1:R1-5:R3$$$V2.0)	104%	1 nM
CC[C@H](C)[C@@H]1NC(=O)[C@H](Cc2ccc(O)cc2)NC(=O)CCS(=O)(=O)CC[C@@H](C(=O)N(C)CC(=O)NC(C)(C)C(=O)NCC(N)=O)NC(=O)[C@H](CC(N)=O)NC(=O)[C@H](CCC(N)=O)NC1=O [Example 10] (HELM PEPTIDE1{Y.I.Q.N.[O=C([C@H](CCS(=O)(=O)CCC(=O)[*:3])N[*:1])[*:2]].[Sar].[Aib].G.[am]}$PEPTIDE1,PEPTIDE1,1:R1-5:R3$$$V2.0; C-terminus assumed; bridges inferred)	100%	
CC[C@H](C)[C@@H]1NC(=O)[C@H](Cc2ccc(O)cc2)NC(=O)CCS(=O)(=O)CC[C@@H](C(=O)N(C)CC(=O)N[C@H](C(=O)NCC(N)=O)C(C)C)NC(=O)[C@H](CC(N)=O)NC(=O)[C@H](CCC(N)=O)NC1=O [Example 12] (HELM PEPTIDE1{Y.I.Q.N.[O=C([C@H](CCS(=O)(=O)CCC(=O)[*:3])N[*:1])[*:2]].[Sar].V.G.[am]}$PEPTIDE1,PEPTIDE1,1:R1-5:R3$$$V2.0)	112%	1.4 nM
CC[C@H](C)[C@H](NC(=O)CN(C)C(=O)[C@@H]1CCS(=O)(=O)CCC(=O)N[C@@H](Cc2ccc(O)cc2)C(=O)N[C@@H]([C@@H](C)CC)C(=O)N[C@@H](CCC(N)=O)C(=O)N[C@@H](CC(N)=O)C(=O)N1)C(=O)NCC(N)=O [Example 13] (HELM PEPTIDE1{Y.I.Q.N.[O=C([C@H](CCS(=O)(=O)CCC(=O)[*:3])N[*:1])[*:2]].[Sar].I.G.[am]}$PEPTIDE1,PEPTIDE1,1:R1-5:R3$$$V2.0; C-terminus assumed; bridges inferred)	117%	
CC[C@H](C)[C@@H]1NC(=O)[C@H](Cc2ccc(O)cc2)NC(=O)CCS(=O)(=O)CC[C@@H](C(=O)N(C)CC(=O)N[C@@H](CCC(C)C)C(=O)NCC(N)=O)NC(=O)[C@H](CC(N)=O)NC(=O)[C@H](CCC(N)=O)NC1=O [Example 15] (HELM PEPTIDE1{Y.I.Q.N.[O=C([C@H](CCS(=O)(=O)CCC(=O)[*:3])N[*:1])[*:2]].[Sar].[CC(C)CC[C@H](N[*:1])C(=O)[*:2]].G.[am]}$PEPTIDE1,PEPTIDE1,1:R1-5:R3$$$V2.0)	107%	1 nM
CC[C@H](C)[C@@H]1NC(=O)[C@H](Cc2ccc(O)cc2)NC(=O)CCS(=O)(=O)CC[C@@H](C(=O)N(C)CC(=O)N[C@@H](Cc2ccccc2)C(=O)NCC(N)=O)NC(=O)[C@H](CC(N)=O)NC(=O)[C@H](CCC(N)=O)NC1=O [Example 16] (HELM PEPTIDE1{Y.I.Q.N.[O=C([C@H](CCS(=O)(=O)CCC(=O)[*:3])N[*:1])[*:2]].[Sar].F.G.[am]}$PEPTIDE1,PEPTIDE1,1:R1-5:R3$$$V2.0)	104%	5.6 nM

Second part, the compound after the results:

Emax	EC50	Compound
144%	1.7 nM	CC[C@H](C)[C@@H]1NC(=O)[C@H](Cc2ccc(O)cc2)NC(=O)CCS(=O)(=O)CC[C@@H](C(=O)N2CC(F)(F)C[C@H]2C(=O)N[C@@H](CC(C)C)C(=O)NCC(N)=O)NC(=O)[C@H](CC(N)=O)NC(=O)[C@H](CCC(N)=O)NC1=O [Example 3] (HELM PEPTIDE1{Y.I.Q.N.[O=C([C@H](CCS(=O)(=O)CCC(=O)[*:3])N[*:1])[*:2]].[O=C([C@@H]1CC(F)(F)CN1[*:1])[*:2]].L.G.[am]}$PEPTIDE1,PEPTIDE1,1:R1-5:R3$$$V2.0)
128%	3 nM	CC[C@H](C)[C@@H]1NC(=O)[C@H](Cc2ccc(O)cc2)NC(=O)CCS(=O)(=O)CC[C@@H](C(=O)N2CC[C@H]2C(=O)N[C@@H](CC(C)C)C(=O)NCC(N)=O)NC(=O)[C@H](CC(N)=O)NC(=O)[C@H](CCC(N)=O)NC1=O [Example 4] (HELM PEPTIDE1{Y.I.Q.N.[O=C([C@H](CCS(=O)(=O)CCC(=O)[*:3])N[*:1])[*:2]].[O=C([C@@H]1CCN1[*:1])[*:2]].L.G.[am]}$PEPTIDE1,PEPTIDE1,1:R1-5:R3$$$V2.0)
145%		CC[C@H](C)[C@@H]1NC(=O)[C@H](Cc2ccc(O)cc2)NC(=O)CCS(=O)(=O)CC[C@@H](C(=O)N2C[C@@H](F)C[C@H]2C(=O)N[C@@H](CC(C)C)C(=O)NCC(N)=O)NC(=O)[C@H](CC(N)=O)NC(=O)[C@H](CCC(N)=O)NC1=O [Example 6] (HELM PEPTIDE1{Y.I.Q.N.[O=C([C@H](CCS(=O)(=O)CCC(=O)[*:3])N[*:1])[*:2]].[O=C([C@@H]1C[C@H](F)CN1[*:1])[*:2]].L.G.[am]}$PEPTIDE1,PEPTIDE1,1:R1-5:R3$$$V2.0; C-terminus assumed; bridges inferred)
115%		CC[C@H](C)[C@@H]1NC(=O)[C@H](Cc2ccc(O)cc2)NC(=O)CCS(=O)(=O)CC[C@@H](C(=O)N(C)CC(=O)N[C@@H](CC2CCCCC2)C(=O)NCC(N)=O)NC(=O)[C@H](CC(N)=O)NC(=O)[C@H](CCC(N)=O)NC1=O [Example 11] (HELM PEPTIDE1{Y.I.Q.N.[O=C([C@H](CCS(=O)(=O)CCC(=O)[*:3])N[*:1])[*:2]].[Sar].[Cha].G.[am]}$PEPTIDE1,PEPTIDE1,1:R1-5:R3$$$V2.0; C-terminus assumed; bridges inferred)
117%	0.7 nM	CCC[C@H](NC(=O)CN(C)C(=O)[C@@H]1CCS(=O)(=O)CCC(=O)N[C@@H](Cc2ccc(O)cc2)C(=O)N[C@@H]([C@@H](C)CC)C(=O)N[C@@H](CCC(N)=O)C(=O)N[C@@H](CC(N)=O)C(=O)N1)C(=O)NCC(N)=O [Example 14] (HELM PEPTIDE1{Y.I.Q.N.[O=C([C@H](CCS(=O)(=O)CCC(=O)[*:3])N[*:1])[*:2]].[Sar].[Nva].G.[am]}$PEPTIDE1,PEPTIDE1,1:R1-5:R3$$$V2.0; C-terminus assumed; bridges inferred)
